Assay results published in patent US20210283092A1, “METHODS AND USES OF […] DERIVATIVES” (priority 2018, published 2021).
“Also recorded” adds a separate entry of the source.

Experiments:
[1] = tested on: human neutrophils stimulated with MSU; assay: MSU-induced calcium mobilization in human neutrophils (Fura-2); format: cell-based; conditions: for lowest concentration significantly inhibiting the MSU-induced increase in intracellular calcium: 1 mg/ml MSU, 30 min pre-incubation; for type of dose response, cytoplasmic calcium: 0.01 to 10 μM; for effect on MSU-induced calcium levels: 10 μM 28a, 39, 47a, 89, 1 μM 14, 3 μM 43, TPO at indicated concentrations
Method: Neutrophils were isolated from venous blood of healthy adult volunteers. Briefly, venous blood was obtained in tubes containing isocitrate, red blood cells were sedimented in 2% dextran and neutrophils were aseptically purified by centrifugation on Ficoll-Paque cushions. Contaminating erythrocytes were removed by hypotonic lysis and neutrophils were resuspended in Mg^2+-free HBSS containing 1.6 mM of CaCl2.
(FIG. 7D), D1=(28a) (FIGS. 7E and 7J), D2=(39) (FIG. 7F), D3=(47a) (FIGS. 7G and 7J), D4=(89) (FIG. 7H) prior to the addition of MSU (1 mg/ml).
The intracellular calcium concentration was determined with a spectrofluorometer and is expressed as the area under the curve (from the MSU injection up to 100 sec).
Changes in cytoplasmic calcium were then measured after the addition of MSU or HBSS (the negative control) using two excitation wavelengths at 340 and 380 nm and an emission wavelength of 510 nm. The free internal calcium concentration was estimated from the ratio of the fluorescence values obtained at 340 and 380 nm. The results are calculated as the area under the curve of the intracellular calcium concentration as a function of time (0-100 sec relative to stimulus addition).
Since one of the earliest molecular events in neutrophils that is initiated by MSU is the mobilization of intracellular calcium stores, the effect of (91) (CCl), (43) and (47a) was assessed on this early signalling event. Briefly, and as described in further detail above, human neutrophils were incubated with the fluorescent calcium indicator Fura-2 prior to incubation with a range of concentrations of (91) (CCl), (43) or (47a) and stimulated with MSU. Fura-2 monitors the increase in cytoplasmic calcium caused by its release from intracellular stores.

[2] = Plasma concentration and half-life in mice after subcutaneous injection
Method: The concentration of the compound in the plasma (FIGS. 10A and B) was determined by mass spectrometry. The concentration of (91) (CCl) or CH-35 (43) is expressed as the means of the amount of (91) (CCl) or CH-35 (43) measured in the plasma (ng/ml) of 5 mice harvested at the same time point.

[3] = tested on: human neutrophils stimulated with fMLP; assay: fMLP-induced increase in cytoplasmic calcium in human neutrophils; format: cell-based; conditions: 10 μM compound, 10^−7 M fMLP
Method: The intracellular calcium concentration was determined with a spectrofluorometer and is expressed as the area under the curve.
To assess the specificity of CCl (91) towards neutrophil activation by MSU, it was determined whether CCl (91) was able to inhibit neutrophil responses towards an unrelated stimulus. A bacterial stimulus was chosen because neutrophil activation in response to this stimulus affects the survival of the host. Briefly, human neutrophils were incubated with the 10 μM CCl (91) prior to the activation with the bacterial peptide fMLF. […] In the presence of CCl (91), however, the cytoplasmic calcium response was unaffected.

[4] = Acute toxicity study in rats; format: in vivo
[5] = tested on: MSU-induced leukocyte recruitment to the dorsal air-pouch; assay: Air-pouch model, compound given 1.5 hours after MSU; format: in vivo, mice; conditions: for lowest dose significantly dampening MSU-induced leukocyte recruitment: subcutaneous 1.5 hours after MSU
Method: (§1) An air-pouch was generated on the dorsum of mice over a period of seven days by injecting air subcutaneously. […] Seven hours after the administration of MSU, the exudate in the air pouches was harvested by two flushes with 2 ml and one with 1 ml of PBS+0.5 M EDTA and the number of recruited leukocytes determined by flow cytometry. Leukocytes were stained with an anti-CD45 and anti-Ly6 G antibody.

[6] = tested on: human neutrophils stimulated with MSU; assay: IL-1 release by TNF-α primed human neutrophils (ELISA); format: cell-based; conditions: 1 mg/ml MSU, 3 h
Method: (§2) Extracellular CXCL8/IL-8 or IL-1β were quantified by ELISA (Invitrogen). All samples were measured in duplicate.
The production and secretion of mature IL-1 requires two stimuli. Human neutrophils were, therefore, primed with TNF-α prior to stimulation with MSU. […] (FIG. 8H-J).

[7] = tested on: atherosclerosis in LDLR KO mice; assay: Mouse model of atherosclerosis, high-fat diet; format: in vivo
Method: LDLR KO mice were randomly divided into 4 groups and either fed a control (CD) diet (group 1 & 2) or high-fat (group 3 & 4) diet. The high-fat (HF) diet contained 0.2% total cholesterol, 21% total fat by weight (42% kcal from fat), >60% of total fatty acids) and was high in sucrose (34% by weight). The animals and their feed were weighed every week.
Mice in group 2 & 4 were administered a dose of 0.5 μmol/kg CCl subcutaneously (s.c), 3 times a week for 8 weeks.
Blood was drawn from mice after the 8-week diet. Serum was prepared from the drawn blood and frozen until analysis. Serum triglycerides and cholesterol were measured in serum of mice by our Multidisciplinary and Microbiology Laboratory Service.
The aortic lesion ‘en face’ assay and Sudan IV staining was performed on aortas harvested from all mice. The percent lipid stained area in the aortic branch and the descending aorta was compared between mice using the ‘region of interest’ tool in ImageJ.
Blood was drawn from mice after the 8-week diet. Serum was prepared from the drawn blood and frozen until analysis. The levels of cytokines in the serum were measured by Luminex assay. The cytokines assayed were Eotaxin (CCL11), CCL21, G-CSF (CSF-3), RANKL, VEGF-A, IL-1 beta, IL-6 & MCP-1 (CCL2). These cytokines were chosen based on a cytokine signature that was reported to reflect the development of atherosclerosis in ApoE KO mice. The LDLR KO model was used since the inflammatory aspect of atherosclerosis is better represented in this model.

[8] = tested on: human neutrophils stimulated with MSU; assay: CXCL8/IL-8 release by human neutrophils (ELISA); format: cell-based; conditions: for lowest concentration giving significant decrease in MSU-induced release of IL-8: 1 mg/ml MSU, 3 h
Method: as §2
In addition, since IL-1 induces the expression of adhesion molecules on endothelial cells as well as the synthesis of pro-inflammatory cytokines, which together promote a massive recruitment of neutrophils, the ability of CCl (91) and CH-35 (43) to dampen the production of IL-1 was also assessed.

[9] = tested on: human neutrophils stimulated with MSU; assay: Superoxide production by human neutrophils (cytochrome C reduction); format: cell-based; conditions: for lowest concentration inhibiting MSU-induced superoxide production: 1 mg/ml MSU
Method: The results are expressed as a ratio of the superoxide produced by the MSU control.
Superoxide production was measured using the reduction of cytochrome C assay. The difference between the optical density readings at 550 nm and 540 nm read within the first 10 minutes was multiplied by the extinction coefficient of cytochrome C to obtain the number of nmol O2 produced by 1×10^6 cells. The results are expressed as nmol O2/1×10^6 cells/ml.
An additional neutrophil effector function that is calcium-dependent, known to be activated by MSU and that can cause damage to the inflamed joint, is the production of ROS.

[10] = tested on: MSU-induced leukocyte recruitment to the dorsal air-pouch; assay: Air-pouch model, compound given 5 min prior to MSU; format: in vivo, CD-1 mice
Method: as §1

[11] = Concentration in circulating leukocytes of mice after subcutaneous injection
Method: Blood was harvested by cardiac puncture and centrifuged to obtain circulating leukocytes. The concentration of the compound in the leukocytes (FIGS. 11A and B) was determined by mass spectrometry. The concentration of (91) (CCl) or CH-35 (43) is expressed as the means of the amount of (91) (CCl) or CH-35 (43) measured in circulating leukocytes (ng/ml) of 5 mice harvested at the same time point.

[12] = tested on: MSU-induced leukocyte recruitment to the dorsal air-pouch; conditions: literature value (Chia et al. 2008); cited from earlier work
[13] = 0.5 μmol/kg s.c. 3 times a week, 8 weeks, HF diet
[14] = en face assay, Sudan IV, HF+CCl

Compound: CCOc1cc2c(c(OC)c1OC)-c1ccc(SC)c(=O)cc1[C@@H](NC(=O)OC)CC2 [(91)]
- effect on MSU-induced increase in cytoplasmic calcium at 10 μM ([1]; 10 μM): does not have a significant effect
- lowest concentration significantly inhibiting the MSU-induced increase in intracellular calcium [1]: 0.1 µM
- type of dose response, cytoplasmic calcium [1]: non-monotonic dose response
- fold lower concentration than colchicine for inhibiting calcium mobilization ([1]; versus colchicine): about 100 fold
- persistence in the plasma ([2]; 5 μmol/kg subcutaneous, mice): at least 2 hours
- fraction of peak plasma concentration by 60 minutes ([2]; mouse, in vivo, sc): less than ¼
- peak plasma concentration ([2]; mouse, in vivo, sc): 80 ng/mL
- time of peak plasma concentration ([2]; mouse, in vivo, sc): 15 min
- half-life ([2]; mouse, in vivo, sc, 5 umol/kg): 13.3 min
- cytoplasmic calcium response to fMLF in presence of compound [3]: unaffected
- toxicity compared with colchicine ([4]; acute toxicity study in rats): less toxic than colchicine
- maximal tolerable dose relative to colchicine ([4]; rats): 3 fold
- fold lower dose than effective dose of colchicine inhibiting leukocyte recruitment ([5]; mouse, in vivo): about 10 fold
- lowest dose significantly dampening MSU-induced leukocyte recruitment [5]: 0.5 µmol/kg
- concentration at which MSU-induced IL-1 production is diminished (threshold) [6]: 0.1 µM
- behaviour and tolerability ([7]; 0.5 μmol/kg s.c. 3 times a week, 8 weeks): did not show any signs of suffering
- serum cholesterol versus HF diet alone [7, 13]: lower
- serum triglycerides versus HF diet alone [7, 13]: lower
- effect on serum cytokine levels ([7]; Luminex, HF diet 8 weeks): no significant effect
- percent of total area of the aortic arch covered by lesions versus HF diet [7, 14]: smaller percent
- percent of total area of the descending aorta covered by lesions versus HF diet [7, 14]: smaller percent
- percent of total area of the descending aorta covered by lesions ([7]; majority of mice in the HF+CCl group): less than 1%
- lowest concentration giving significant decrease in MSU-induced release of IL-8 [8]: 0.1 µM
- fold lower concentration than colchicine for inhibiting release of IL-8 ([8]; versus colchicine): about 10 fold
- lowest concentration inhibiting MSU-induced superoxide production [9]: 0.1 µM
- fold lower concentration than colchicine for inhibiting superoxide production ([9]; versus colchicine): about 10 fold
- fold lower dose than colchicine inhibiting leukocyte recruitment ([10]; mouse, in vivo): ~10 fold
- dose inhibiting MSU-induced leukocyte recruitment ([10]; mouse, in vivo, sc): 0.5 µmol/kg
- time of peak concentration in circulating leukocytes ([11]; mouse, in vivo, sc): 15 min

Compound: COc1cc2c(c(OC)c1OC)-c1ccc(SC)c(=O)cc1[C@@H](NC(C)=O)CC2 [(39), N-[(7S)-1,2,3-trimethoxy-10-methylsulfanylo-9-oxo-5,6,7,9-tetrahydrobenzo [α]heptalen-7-yl]acetamide]
- effect on MSU-induced calcium levels [1]: neutrophil-inhibitory effects

Compound: CCCOc1cc2c(c(OC)c1OC)-c1ccc(SC)c(=O)cc1[C@@H](NC(C)=O)CC2 [(43), N-[(7S)-3-propoxy-1,2-dimethoxy-10-methylsulfanyl-9-oxo-5,6,7,9-tetrahydrobenzo [α]heptalen-7-yl]acetamide]
- effect on MSU-induced calcium levels [1]: neutrophil-inhibitory effects
- lowest concentration significantly inhibiting the MSU-induced increase in intracellular calcium [1]: 0.1 µM
- type of dose response, cytoplasmic calcium [1]: classical monotonic dose response
- time after injection at which plasma level dropped to undetectable ([2]; 5 μmol/kg subcutaneous, mice): about 50 minutes
- time of peak plasma concentration ([2]; 5 μmol/kg subcutaneous, mice): 15 min
- lowest dose significantly dampening MSU-induced leukocyte recruitment [5]: 2.5 µmol/kg
- concentration at which MSU-induced IL-1 production is diminished (threshold) [6]: 1 µM
- lowest concentration giving significant decrease in MSU-induced release of IL-8 [8]: 0.1 µM
- lowest concentration inhibiting MSU-induced superoxide production [9]: 0.1 µM
- time of peak concentration in circulating leukocytes ([11]; 5 μmol/kg subcutaneous, mice): 15 min

Compound: COC(=O)N(C)[C@H]1CCc2cc(OC)c(OC)c(OC)c2-c2ccc(SC)c(=O)cc21 [TPO, reference compound]
- effect on MSU-induced calcium levels [1]: inhibition at higher concentrations

Compound: COc1cc2c(c(OCc3ccccc3Cl)c1OC)-c1ccc(OC)c(=O)cc1[C@@H](NC(C)=O)CC2 [(14), N-[(7S)-2,3,10-trimethoxy-9-oxo-1-((phenyl(2-chloro))methoxy)-5,6,7,9-tetrahydrobenzo[α]heptalen-7-yl] acetamide]
- effect on MSU-induced calcium levels [1]: neutrophil-inhibitory effects

Compound: N-[(7S)-1,2,3,10-tetramethoxy-9-oxo-5,6,7,9-tetrahydrobenzo[α]heptalen-7-yl] acetamide [Colchicine, reference compound]
- lowest concentration significantly inhibiting the MSU-induced increase in intracellular calcium [1]: 10 µM
- dose that effectively dampens MSU-induced leukocyte recruitment in mice [12]: 5 µmol/kg
- effect on MSU-induced leukocyte recruitment at 0.5 μmol/kg ([5]; 0.5 μmol/kg, after MSU): no longer able to significantly inhibit; also recorded: loses its anti-inflammatory activity
- concentration at which MSU-induced IL-1 production is diminished (threshold) [6]: 10 µM
- lowest concentration giving significant decrease in MSU-induced release of IL-8 [8]: 1 µM
- lowest concentration inhibiting MSU-induced superoxide production [9]: 1 µM
- effect on MSU-induced leukocyte recruitment at 0.5 μmol/kg ([10]; 0.5 μmol/kg, 5 min prior to MSU): lost its potency to significantly inhibit
- dose inhibiting MSU-induced leukocyte recruitment ([10]; subcutaneous 5 min prior to MSU, 7 hours): 5 µmol/kg

Compound: COC(=O)N[C@H]1CCc2cc(O)c(OC)c(OC)c2-c2ccc(SC)c(=O)cc21 [(89)]
- effect on MSU-induced calcium levels [1]: exception
